{"source": "ChEMBL document CHEMBL2434905", "about": "“2-Amino-6-chloro-3,4-dihydroquinazoline: A novel 5-HT3 receptor antagonist with antidepressant character” (Bioorg Med Chem Lett, 2013)", "tested_on": "Mus musculus", "assay": "Antidepressant activity in ICR mouse assessed as immobility time at 20 mg/kg, ip by tail suspension test", "format": "functional, organism-based", "set-up": "dose 20 mg/kg", "note": "Calls of active or inactive are those of the source. The calls are words filed in the database; no cut-off is given here.", "data": [{"smiles": "CNCCCN1c2ccccc2CCc2ccccc21", "values": [{"measurement": "Activity", "value": "Active"}]}, {"smiles": "CNCCC(Oc1ccc(C(F)(F)F)cc1)c1ccccc1", "note": "(configuration not stated)", "values": [{"measurement": "Activity", "value": "Active"}]}]}
